Here are results for 21 compounds from patent US20100286145A1, “ISOPHTHALAMIDE DERIVATIVES INHIBITING BETA-SECRETASE ACTIVITY” (CoMentis, Inc., priority 2007, published 2010).

One experiment concerns the target memapsin 2 (Homo sapiens, UniProt P56817). Briefly: Inhibition of memapsin 2 beta-secretase activity (fluorogenic substrate FS-2). It is filed as biochemical. Particulars: memapsin 2, pH 4, 37° C., fluorogenic substrate FS-2; read-out: M2Ki. In short, it runs like this:
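Kinetic fluorogenic assay: hydrolysis of the MCA/DNP-labelled APP Swedish-variant peptide FS-2 monitored as fluorescence rise at 37° C, pH 4, after 20 min enzyme–compound preincubation. Relative rates fitted with a tight-binding inhibitor model.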

Experiment [1] concerns Aβ production in Chinese hamster ovary cells that over-express human APP695 with the London and Swedish mutations. Briefly: Cellular Aβ IC50 determination (Aβ40 sandwich ELISA). It is filed as cell-based. The following applies: Cricetulus griseus; cellular Aβ production; read-out: IC50. In short, it runs like this: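 Aβ40 in media quantified by sandwich ELISA, normalized to control incubations and fitted with a 4-parameter IC50 model. Compounds dosed to a final concentration near 4 μM (0.4% DMSO) on CHO cells expressing human APP695 (London and Swedish mutants) seeded at 10% confluency.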
On the technique in general: In an ELISA, binding on a coated surface is turned into a signal by an enzyme label.

Sequence of memapsin 2 (P56817 46-501): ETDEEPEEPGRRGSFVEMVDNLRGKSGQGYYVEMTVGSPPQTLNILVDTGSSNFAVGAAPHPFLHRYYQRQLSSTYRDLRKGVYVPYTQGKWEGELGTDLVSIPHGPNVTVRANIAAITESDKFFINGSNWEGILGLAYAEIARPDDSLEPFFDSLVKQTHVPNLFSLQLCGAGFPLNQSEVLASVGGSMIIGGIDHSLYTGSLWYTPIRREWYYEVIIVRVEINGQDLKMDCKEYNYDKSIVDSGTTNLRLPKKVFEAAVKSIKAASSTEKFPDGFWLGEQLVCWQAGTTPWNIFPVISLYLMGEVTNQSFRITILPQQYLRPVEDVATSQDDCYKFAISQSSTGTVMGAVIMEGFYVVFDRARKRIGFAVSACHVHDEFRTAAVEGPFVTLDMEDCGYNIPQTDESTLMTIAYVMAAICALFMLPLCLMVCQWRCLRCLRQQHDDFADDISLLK

As for `Cc1csc(CN(C)C(=O)c2cc(C(=O)N[C@@H](Cc3ccccc3)[C@H](O)CNCc3cncc(C(C)C)c3)cc(-c3cnn(C)c3)c2)n1` [Compound 258, N1-((2S,3R)-3-hydroxy-4-((5-isopropylpyridin-3-yl)methylamino)-1-phenylbutan-2-yl)-N3-methyl-5-(1-methyl-1H-pyrazol-4-yl)-N3-((4-methylthiazol-2-yl)methyl)isophthalamide], at memapsin 2, the Ki was < 300 nM. Moreover, the IC50 (usually the midpoint of a concentration-inhibition curve) in experiment [1] was < 1000 nM.

Take `Cc1csc(CN(C)C(=O)c2cc(C(=O)N[C@@H](Cc3ccccc3)[C@H](O)CNCc3cncc(C(C)C)c3)cc(-c3ccc(F)nc3)c2)n1` [Compound 259, 5-(6-fluoropyridin-3-yl)-N1-((2S,3R)-3-hydroxy-4-((5-isopropylpyridin-3-yl)methylamino)-1-phenylbutan-2-yl)-N3-methyl-N3-((4-methylthiazol-2-yl)methyl)isophthalamide]: on memapsin 2, the Ki was < 300 nM. Besides, the IC50 in experiment [1] is < 1000 nM.

As to `COc1cccc([C@H](C)NC[C@@H](O)[C@H](Cc2ccccc2)NC(=O)c2cc(C(=O)N(C)Cc3nc(C)cs3)cc(N(C)C)c2)c1` [Compound 260, 5-(dimethylamino)-N1-((2S,3R)-3-hydroxy-4-((S)-1-(3-methoxyphenyl)ethylamino)-1-phenylbutan-2-yl)-N3-methyl-N3-((4-methylthiazol-2-yl)methyl)isophthalamide], at memapsin 2, the Ki lay within 301 to 500 nM. The IC50 in experiment [1] is < 1000 nM.

Take `Cc1csc(CN(C)C(=O)c2cccc(C(=O)N[C@@H](Cc3ccccc3)[C@H](O)CNCc3cc(Cl)ccc3F)c2)n1` [Compound 261, N1-((2S,3R)-4-(5-chloro-2-fluorobenzylamino)-3-hydroxy-1-phenylbutan-2-yl)-N3-methyl-N3-((4-methylthiazol-2-yl)methyl)isophthalamide]: at memapsin 2, the Ki was < 300 nM. In experiment [1], the IC50 was < 1000 nM.

Take `COc1cccc(CNC[C@@H](O)[C@H](Cc2ccccc2)NC(=O)c2cc(C(=O)N(C)Cc3nc(C)cs3)cc(-n3ccnc3)c2)c1` [Compound 262, N1-((2S,3R)-3-hydroxy-4-(3-methoxybenzylamino)-1-phenylbutan-2-yl)-5-(1H-imidazol-1-yl)-N3-methyl-N3-((4-methylthiazol-2-yl)methyl)isophthalamide]: the Ki on memapsin 2 was < 300 nM. Moreover, in experiment [1], the IC50 was < 1000 nM.

For the compound `Cc1csc(CN(C)C(=O)c2cc(C(=O)N[C@@H](Cc3ccccc3)[C@H](O)CNCc3cncc(C(C)C)c3)cc(-c3ncc[nH]3)c2)n1` [Compound 263, N1-((2S,3R)-3-hydroxy-4-((5-isopropylpyridin-3-yl)methylamino)-1-phenylbutan-2-yl)-5-(1H-imidazol-2-yl)-N3-methyl-N3-((4-methylthiazol-2-yl)methyl)isophthalamide], at memapsin 2, the Ki was < 300 nM. In experiment [1], the half-maximal inhibitory concentration (IC50) is < 1000 nM.

`CC(=O)c1cncc(CNC[C@@H](O)[C@H](Cc2ccccc2)NC(=O)c2cccc(C(=O)N(C)Cc3nc(C)cs3)c2)c1` [Compound 264, N1-((2S,3R)-4-((5-acetylpyridin-3-yl)methylamino)-3-hydroxy-1-phenylbutan-2-yl)-N3-methyl-N3-((4-methylthiazol-2-yl)methyl)isophthalamide]: the Ki on memapsin 2 was < 300 nM. Besides, in experiment [1], the IC50 was < 1000 nM.

As to `Cc1csc(CN(C)C(=O)c2cccc(C(=O)N[C@@H](Cc3ccccc3)[C@H](O)CNCc3cc(Br)cc(C(F)(F)F)c3)c2)n1` [Compound 265, N1-((2S,3R)-4-(3-bromo-5-(trifluoromethyl)benzylamino)-3-hydroxy-1-phenylbutan-2-yl)-N3-methyl-N3-((4-methylthiazol-2-yl)methyl)isophthalamide], the Ki at memapsin 2 was < 300 nM. Further, in experiment [1], the half-maximal inhibitory concentration (IC50) was < 1000 nM.

As to `Cc1csc(CN(C)C(=O)c2cccc(C(=O)N[C@@H](Cc3ccccc3)[C@H](O)CNCc3cc(C#N)cc(C(F)(F)F)c3)c2)n1` [Compound 266, N1-((2S,3R)-4-(3-cyano-5-(trifluoromethyl)benzylamino)-3-hydroxy-1-phenylbutan-2-yl)-N3-methyl-N3-((4-methylthiazol-2-yl)methyl)isophthalamide], the Ki at memapsin 2 was < 300 nM. Moreover, the IC50 in experiment [1] is < 1000 nM.

Consider `Cc1csc(CN(C)C(=O)c2cccc(C(=O)N[C@@H](Cc3ccccc3)[C@H](O)CNCc3cccc(-c4ccccc4)c3)c2)n1` [Compound 267, N1-((2S,3R)-4-(biphenyl-3-ylmethylamino)-3-hydroxy-1-phenylbutan-2-yl)-N3-methyl-N3-((4-methylthiazol-2-yl)methyl)isophthalamide], for which, on memapsin 2, the Ki is < 300 nM. Besides, the IC50 in experiment [1] is < 1000 nM.

Consider `Cc1csc(CN(C)C(=O)c2cc(C(=O)N[C@@H](Cc3ccccc3)[C@H](O)CNCc3cccc(C(C)(C)C)c3)cc(N(C)C)c2)n1` [Compound 268, N1-((2S,3R)-4-(3-tert-butylbenzylamino)-3-hydroxy-1-phenylbutan-2-yl)-5-(dimethylamino)-N3-methyl-N3-((4-methylthiazol-2-yl)methyl)isophthalamide], for which the Ki at memapsin 2 was < 300 nM. The IC50 in experiment [1] was < 1000 nM.

As for `C=C(C)c1cc(CNC[C@@H](O)[C@H](Cc2ccccc2)NC(=O)c2cccc(C(=O)N(C)Cc3nc(C)cs3)c2)c[n+]([O-])c1` [Compound 269, 3-(((2R,3S)-2-hydroxy-3-(3-(methyl((4-methylthiazol-2-yl)methyl)carbamoyl)benzamido)-4-phenylbutylamino)methyl)-5-(prop-1-en-2-yl)pyridine 1-oxide], the Ki on memapsin 2 is < 300 nM. For the same compound, in experiment [1], the IC50 is < 1000 nM.

For the compound `Cc1csc(CN(C)C(=O)c2cc(C(=O)N[C@@H](Cc3ccccc3)[C@H](O)CNCc3cncc(C(C)(C)F)c3)cc(-c3ccoc3)c2)n1` [Compound 270, N1-((2S,3R)-4-((5-(2-fluoropropan-2-yl)pyridin-3-yl)methylamino)-3-hydroxy-1-phenylbutan-2-yl)-5-(furan-3-yl)-N3-methyl-N3-((4-methylthiazol-2-yl)methyl)isophthalamide], the Ki on memapsin 2 is < 300 nM. In addition, the concentration for half-maximal inhibition (IC50) in experiment [1] is < 1000 nM.

Turning to `Cc1csc(CN(C)C(=O)c2cc(C(=O)N[C@@H](Cc3ccccc3)[C@H](O)CNCc3cncc(C(C)C)c3)cc(-c3nccn3C)c2)n1` [Compound 271, N1-((2S,3R)-3-hydroxy-4-((5-isopropylpyridin-3-yl)methylamino)-1-phenylbutan-2-yl)-N3-methyl-5-(1-methyl-1H-imidazol-2-yl)-N3-((4-methylthiazol-2-yl)methyl)isophthalamide], the Ki at memapsin 2 is < 300 nM. In addition, in experiment [1], the IC50 was < 1000 nM.

Take `Cc1csc(CN(C)C(=O)c2cc(C(=O)N[C@@H](Cc3ccccc3)[C@H](O)CNCc3cncc(C(C)C)c3)cc(-c3cccc(Cl)c3)c2)n1` [Compound 272, 3′-chloro-N3-((2S,3R)-3-hydroxy-4-((5-isopropylpyridin-3-yl)methylamino)-1-phenylbutan-2-yl)-N5-methyl-N5-((4-methylthiazol-2-yl)methyl)biphenyl-3,5-dicarboxamide]: on memapsin 2, the Ki is < 300 nM. Also, the IC50 in experiment [1] is < 1000 nM.

Regarding `Cc1csc(CN(C)C(=O)c2cc(C(=O)N[C@@H](Cc3ccccc3)[C@H](O)CNCc3cccc(C(F)(F)F)c3)cc(C(C)C)c2)n1` [Compound 273, N1-((2S,3R)-3-hydroxy-1-phenyl-4-(3-(trifluoromethyl)benzylamino)butan-2-yl)-5-isopropyl-N3-methyl-N3-((4-methylthiazol-2-yl)methyl)isophthalamide], the Ki on memapsin 2 was < 300 nM. Besides, in experiment [1], the IC50 was < 1000 nM.

In the case of `Cc1csc(CN(C)C(=O)c2cc(C(=O)N[C@@H](Cc3ccccc3)[C@H](O)CNCc3cncc(C(C)C)c3)cc(C(C)C)c2)n1` [Compound 274, N1-((2S,3R)-3-hydroxy-4-((5-isopropylpyridin-3-yl)methylamino)-1-phenylbutan-2-yl)-5-isopropyl-N3-methyl-N3-((4-methylthiazol-2-yl)methyl)isophthalamide], on memapsin 2, the Ki was < 300 nM. In addition, the IC50 in experiment [1] was < 1000 nM.

As to `CC(=O)Nc1cc(CNC[C@@H](O)[C@H](Cc2ccccc2)NC(=O)c2cccc(C(=O)N(C)Cc3nc(C)cs3)c2)cc(C(F)(F)F)c1` [Compound 276, N1-((2S,3R)-4-(3-acetamido-5-(trifluoromethyl)benzylamino)-3-hydroxy-1-phenylbutan-2-yl)-N3-methyl-N3-((4-methylthiazol-2-yl)methyl)isophthalamide], the Ki on memapsin 2 is < 300 nM. Further, the IC50 in experiment [1] is < 1000 nM.

`Cc1csc(CN(C)C(=O)c2cc(C(=O)N[C@@H](Cc3ccccc3)[C@H](O)CNCc3cncc(C(C)(C)F)c3)cc(C(C)C)c2)n1` [Compound 277, N1-((2S,3R)-4-((5-(2-fluoropropan-2-yl)pyridin-3-yl)methylamino)-3-hydroxy-1-phenylbutan-2-yl)-5-isopropyl-N3-methyl-N3-((4-methylthiazol-2-yl)methyl)isophthalamide]: the Ki on memapsin 2 is < 300 nM. The IC50 in experiment [1] was < 1000 nM.

Turning to `CC(C)c1cncc(CNC[C@@H](O)[C@H](Cc2ccccc2)NC(=O)c2cccc(C(=O)N(C)Cc3nc(CF)cs3)c2)c1` [Compound 278, N1-((4-(fluoromethyl)thiazol-2-yl)methyl)-N3-((2S,3R)-3-hydroxy-4-((5-isopropylpyridin-3-yl)methylamino)-1-phenylbutan-2-yl)-N1-methylisophthalamide], at memapsin 2, the Ki was < 300 nM. In experiment [1], the IC50 is < 1000 nM.

On to `CO/C=C(/C)c1cncc(CNC[C@@H](O)[C@H](Cc2ccccc2)NC(=O)c2cccc(C(=O)N(C)Cc3nc(C)cs3)c2)c1` [Compound 279, N1-((2S,3R)-3-hydroxy-4-((5-((Z)-1-methoxyprop-1-en-2-yl)pyridin-3-yl)methylamino)-1-phenylbutan-2-yl)-N3-methyl-N3-((4-methylthiazol-2-yl)methyl)isophthalamide], for which the Ki on memapsin 2 was 301 to 500 nM. The IC50 in experiment [1] was < 1000 nM.
